Laboratory results from patent US6342516B1, “Phenylazole compounds, process for producing the same and drugs for hyperlipemia” (Nippon Soda Co., Ltd., priority 1998, dated 2002).

Experiments:
[1] = test system: Lipid peroxidation activity in rat liver microsome; assay: Effect on lipid peroxidation in vitro (rat liver microsome, thiobarbituric acid method); format: biochemical; conditions: rat liver microsomes, 500 μM cystein and 5 μM ferrous(II) sulfate, malonaldehyde by thiobarbituric acid method; read-out: Lipid Antiperoxidation Activity 50% Inhibition Concentration (IC50)
Experimental: Pharmacological Test Example 2: Effect on lipid peroxidation in vitro
Lipid peroxidation activity in rat liver microsome was determined according to the method of Malvy et al. (Malvy et al., Biochemical and Biophysical Research Communications, 95, 734-737 (1980)). More particularly, 500 μM cystein and 5 μM ferrous(II) sulfate were incubated with rat liver microsomes, and the amount of malonaldehyde produced due to the decomposition of lipid peroxide was determined according to thiobarbituric acid method. The concentration of the compounds required to inhibit the formation of lipid peroxide by 50% (IC50) was calculated.

cholesterol-fed hamsters = assay: Effect on serum lipids of cholesterol-fed hamsters (serum total cholesterol and triglyceride reduction rate); format: in vivo; conditions: cholesterol-fed Syrian hamsters, oral once a day for 5 days
Experimental: Pharmacological Test Example 1: Effect on serum lipids of cholesterol-fed hamsters
Syrian hamsters (Std:Syrian, Male, 4 weeks old) were freely fed with chow containing 1% cholesterol and 10% coconut oil for 3 weeks ad libitum.
At the last week of feeding, each of the test compounds was dissolved or suspended in either 0.1% hydrochloric acid solution or 1% polyethylene-hydrogenated castor oil (NIKKOL HCO-60) solution and was orally administrated to hamsters once a day for 5 days. For the hamsters of the control group, only the solvent was orally administered. Then, blood was collected from the abdominal vein under the condition of anesthesia with pentobarbital at 2-4 hours after the last administration, and the serum in the blood was separated. The serum total cholesterol value and the serum triglyceride value were determined by using autobiochemical analyzer with analizing kits, and reduction rate of the serum lipids was determined according to the equation indicated below based on the analyzed values for respective hamster groups.
Serum lipids reduction rate (%)=(Amount of serum lipids of the control group−Amount of serum lipids of the group administrated with the test compound)/Amount of serum lipids of the control group×100

[2] = test system: carbon tetrachloride induced liver damage model in rats; assay: Carbon tetrachloride induced liver damage model in rats (lipid peroxide in liver; serum GOT, GPT); format: in vivo, rats (SD-strain, male); conditions: for Antioxidation Activity of Lipid: Mass of lipid peroxide / Antioxidation Activity of Lipid: Prevention Rate: liver at 24 hours; for Preventive Activity on Liver Disorder: GOT / Preventive Activity on Liver Disorder: GOT Prevention Rate / Preventive Activity on Liver Disorder: GPT / Preventive Activity on Liver Disorder: GPT Prevention Rate: serum
Experimental: Pharmacological Test Example 3: Effect on lipid peroxidation […] Effect of the compounds of the present invention on the produced lipid peroxide in liver was examined on carbon tetrachloride induced liver damage model in rats. Briefly, providing 5 SD-strain male rats (6 weeks old) for each group, carbon tetrachloride at the rate of 1 ml/kg or 2 ml/kg (0.5 ml/kg or 1 ml/kg based on carbon tetrachloride) was orally administered to the rats together with the equivalent dose of olive oil. At 24 hours after the administration of carbon tetrachloride, their livers were excised, and the produced amount of lipid peroxide in liver was determined by thiobarbituric acid method according to Uchiyama's method (Uchiyama, M., et al., Analytical biochemistry, 86, 271-278 (1978)). In parallel, as the indicator for liver disorder due to carbon tetrachloride, serum enzyme activity (GOT, GPT) was measured. Then each of the test compounds, which was either dissolved or suspended in either 0.1% hydrochloric acid solution or olive oil, was orally administered to the rats 3 times at 1 before and, 3 and 6 hours after the administration of carbon tetrachloride. For the rats of normal group and control groups, the solvent was orally administered. Based on the measured values for each groups, the inhibitory rate of producing peroxidized lipids and the inhibitory rate of causing liver disorder were calculated according to the following equation. Inhibitory rate of producing lipid peroxide (%)=[1−(Produced amount of lipid peroxide in the test compound group−Produced amount of lipid peroxide in the normal rat group)/(Produced amount of lipid peroxide in the control group−Produced amount of lipid peroxide in the normal rat group)]×100 Liver disorder preventing rate (%)=[1−(GOT amount of GPT amount in the test compound group−GOT amount or GPT amount in the normal rat group)/(GOT amount or GPT amount in the control group−GOT amount or GPT amount in the normal rat group)]×100 The results are presented in Table 8.

rats (male SD-strain) = conditions: rat, in vivo, 100 mg/kg/day
Experimental: Pharmacological Test Example 4: Repeated Oral Administration Toxicity
The Compound with No. 3-1 was suspended in 1% polyethylene-hardened castor oil (NIKKOL HCO-60) solution, and the suspension was orally administered to rats (male SD-strain), 6 rats per group, at a rate of 100 mg/kg/day for 7 days.

[3] = CCl4: 1 ml/kg, dose 10 mg/kg oral 3 times
[4] = CCl4: 0.5 ml/kg, dose 100 mg/kg oral 3 times

IC50 [1] [nM]	SMILES	Serum lipids reduction rate comparing to Control group (%), Means of 3 animals: Total cholesterol (cholesterol-fed hamsters; dose 25 mg/kg) [%]	Serum lipids reduction rate comparing to Control group (%), Means of 3 animals: Triglyceride (cholesterol-fed hamsters; dose 25 mg/kg) [%]	also measured
2800	CC(=O)Oc1c(C)c(C)c2c(c1C)CC(C)(C(=O)Nc1ccc(-n3ccnc3)cc1)O2 (racemic) [3-13]	–	–	–
920	Cc1c(C)c2c(c(C)c1O)CC(C)(C=CC(=O)Nc1ccc(-n3ccnc3)cc1)O2 (racemic) [3-15]	26	30	–
2100	Cc1c(C)c2c(c(C)c1O)CC(C)(C=CC=CC(=O)Nc1ccc(-n3ccnc3)cc1)O2 (racemic) [3-16]	–	–	–
3800	Cc1c(C)c2c(c(C)c1O)CCC(C)(C(=O)NCCCCCC(=O)Nc1ccc(-n3ccnc3)cc1)O2 (racemic) [3-8]	–	–	–
3300	CC1=C(C)C(=O)C(C(CCCc2ccccc2)CCC(=O)Nc2ccc(-n3ccnc3)cc2)=C(C)C1=O (centres unmarked) [Compound No. 3-28, N-[4-(imidazol-1-yl)phenyl]-7-phenyl-4-(3,5,6-trimethyl-1,4-benzoquinon-2-yl)heptanamide]	29	23	Antioxidation Activity of Lipid: Mass of lipid peroxide [2, 3]: 5.781 A535nm/g lever; Antioxidation Activity of Lipid: Prevention Rate [2, 3]: 61%; Preventive Activity on Liver Disorder: GOT [2, 3]: 269 IU/L; Preventive Activity on Liver Disorder: GOT Prevention Rate [2, 3]: 76%; Preventive Activity on Liver Disorder: GPT [2, 3]: 82 IU/L; Preventive Activity on Liver Disorder: GPT Prevention Rate [2, 3]: 82%
2500	Cc1c(C)c2c(c(C)c1O)CC(C)(CCCCC(=O)Nc1ccc(-n3ccnc3)cc1)O2 (racemic) [3-12]	–	–	–
1900	Cc1c(C)c2c(c(C)c1O)CC(C)(C(=O)Nc1ccc(-n3ccnc3)cc1)O2 (racemic) [3-9]	38	49	–
490	Cc1c(C)c2c(c(C)c1O)CCC(C)(C(=O)Nc1ccc(-c3ccn[nH]3)cc1)O2 (racemic) [Compound No. 3-25, (±)-(6-hydroxy-2,5,7,8-tetramethylchroman-2-yl)-N-[4-(pyrrazol-5-yl)phenyl]carboxamide]	–	–	–
420	CC(=O)Oc1c(C)c(C)c2c(c1C)CC(C)(C(=O)Nc1ccc(-c3ccn[nH]3)cc1)O2 (racemic) [3-19]	–	–	–
2600	Cc1c(C)c2c(c(C)c1OC(=O)c1ccccc1)CCC(C)(C(=O)Nc1ccc(-n3ccnc3)cc1)O2 (racemic) [3-14]	22	31	–
2300	Cc1c(C)c2c(c(C)c1O)CCC(C)(CC(=O)Nc1ccc(-n3ccnc3)cc1)O2 (racemic) [3-4]	37	80	–
–	O=C(Nc1ccc(-n2ccnc2)cc1)c1cnc2ccccc2n1 [4-37]	–	–	Serum lipids reduction rate comparing to Control group (%), Means of 3 animals: Total cholesterol (cholesterol-fed hamsters; dose 12.5 mg/kg): 26%; Serum lipids reduction rate comparing to Control group (%), Means of 3 animals: Triglyceride (cholesterol-fed hamsters; dose 12.5 mg/kg): 25%
–	CC(C)(C)c1cc(C(=O)Nc2ccc(-n3ccnc3)cc2)[nH]n1 [4-16]	34	34	–
–	O=C(COc1ncccn1)Nc1ccc(-n2ccnc2)cc1 [4-101]	41	38	–
–	O=C(Nc1ccc(-n2ccnc2)cc1)c1ccc[nH]1 [4-38]	–	–	Serum lipids reduction rate comparing to Control group (%), Means of 3 animals: Total cholesterol (cholesterol-fed hamsters; dose 12.5 mg/kg): 32%; Serum lipids reduction rate comparing to Control group (%), Means of 3 animals: Triglyceride (cholesterol-fed hamsters; dose 12.5 mg/kg): 31%
–	Cc1ccc2ccc(C(=O)Nc3ccc(-n4ccnc4)cc3)cn12 [4-71]	45	62	–
–	O=C(CC1CCc2sccc2C1=O)Nc1ccc(-n2ccnc2)cc1 (centres unmarked) [4-72]	37	53	–
2100	Cc1c(C)c2c(c(C)c1O)CC(C)(CCC(=O)Nc1ccc(-n3ccnc3)cc1)O2 (racemic) [3-10]	35	51	–
–	O=C(COc1nc2c(c(C(F)(F)F)n1)CCO2)Nc1ccc(-n2ccnc2)cc1 [4-81]	–	–	Serum lipids reduction rate comparing to Control group (%), Means of 3 animals: Total cholesterol (cholesterol-fed hamsters; dose 12.5 mg/kg): 22%; Serum lipids reduction rate comparing to Control group (%), Means of 3 animals: Triglyceride (cholesterol-fed hamsters; dose 12.5 mg/kg): 43%
1300	Cc1c(C)c2c(c(C)c1O)CCC(C)(CCC(=O)Nc1ccc(-n3ccnc3)cc1)O2 (racemic) [3-5]	–	–	–

SMILES	IC50 [1] [nM]	Serum lipids reduction rate comparing to Control group (%), Means of 3 animals: Total cholesterol (cholesterol-fed hamsters; dose 25 mg/kg) [%]	Serum lipids reduction rate comparing to Control group (%), Means of 3 animals: Triglyceride (cholesterol-fed hamsters; dose 25 mg/kg) [%]	also measured
Cc1cc(C(C)(C)C)c(O)c(C(C)(C)C)c1 [BHT, 2,6-t-Dibutyl-p-cresol, reference compound]	2200	–	–	–
Cc1c(C)c2c(c(C)c1O)CCC(C)(C(=O)Nc1ccc(-n3ccnc3)cc1)O2 (racemic) [Compound No. 3-1, (±)-(6-Hydroxy-2,5,7,8-tetramethylchroman-2-yl)-N-[4-(imidazol-1-yl)phenyl]carboxamide]	2700	40	62	Antioxidation Activity of Lipid: Mass of lipid peroxide [2, 4]: 2.361 A535nm/g lever; Antioxidation Activity of Lipid: Prevention Rate [2, 4]: 96%; Preventive Activity on Liver Disorder: GOT [2, 4]: 137 IU/L; Preventive Activity on Liver Disorder: GOT Prevention Rate [2, 4]: 100%; Preventive Activity on Liver Disorder: GPT [2, 4]: 61 IU/L; Preventive Activity on Liver Disorder: GPT Prevention Rate [2, 4]: 86%; Repeated oral administration toxicity (death, toxicological symptoms) (rats (male SD-strain)): neither death nor any toxicological symptoms were observed
